Counter-ions that a name gives are not always drawn.
Columns and labels:
[1] = tested on: painful syndrome produced in mice by phenylbenzoquinone; test: Analgesic test of Siegmund, Cadmus and Lu (phenylbenzoquinone-induced painful syndrome, stretching); format: in vivo, mice (Swiss strain); details: oral; for Analgesic activity at 1/10 of LD50: dose 1/10 of LD50, 30 minutes before phenylbenzoquinone; for Analgesic activity at 1/40 of LD50: dose 1/40 of LD50, 30 minutes before phenylbenzoquinone
Experimental: They were in particular subjected to the analgesic test of Siegmund, Cadmus and Lu (Proc. Soc. Exp. Biol. Med. 95, 729, 1957) according to which a characteristic painful syndrome is produced in mice by injecting phenylbenzoquinone.
The animals used are Swiss strain mice, weighing 20±2 grams.
The animals are distributed in random batches of 10, but are tested individually. Each test comprises at least two batches.
a control batch that receives the solvent and phenylbenzoquinone
a batch treated with the product being investigated.
The investigated products are administered orally, in an amount of 1/10 or 1/40 of the LD50, 30 minutes before the injection of the irritant agent. Each mouse then receives 0.25 ml of a 0.02% phenylbenzoquinone solution intraperitoneally.
The pain syndrome produced by the injection of phenylbenzoquinone causes the animals to stretch their stomach and rear paws, and at the crisis point of the reaction the animal's flanks are very contracted. 5 minutes after the injection of the irritant, the stretching is counted for a period of 10 minutes.
The average number of stretchings is calculated for each batch. The activity of the product under investigations is determined by comparison with the average number of stretchings in the treated animals (N) and the average number of stretchings in the control animals (N'). [formula]
The statistical significance of the result thus obtained is evaluated by Fisher's non-parametric test.

[2] = Oral toxicity in mice (Miller and Tainter's method); format: in vivo; details: mouse, in vivo, po, read-out: LD50 toxicity orally
Experimental: (§1) The toxicity of the compounds according to the invention administered orally was also determined in mice by Miller and Tainter's method.

[3] = tested on: carrageenin oedema; test: Carrageenin oedema test (Winter and Risley's technique), anti-inflammatory activity; format: in vivo, rats (Wistar strain, female); details: rats, inhibition of oedema compared with control batch
Experimental: The anti-inflammatory activity was measured by the carrageenin oedema test according to Winter and Risley's technique (Proc. Soc. Exp. Biol. 111, 544, 1962). The test was carried out on batches of 10 Wistar strain female rats weighing 180 g, which receives the products in an amount of 1/10 of the LD50. The anti-inflammatory activity corresponds to the inhibition of the oedema in the treated batch compared with the control batch.

[4] = tested on: mice; test: Oral toxicity in mice (Miller and Tainter's method); format: in vivo
Experimental: as §1

Row | Compound | Analgesic activity at 1/10 of LD50 [1] | Analgesic activity at 1/40 of LD50 [1] | LD50 [2] | Anti-inflammatory activity at 1/10 of LD50 [3] | LD50 toxicity orally [4]
1 | CCOC(=O)C(C)Oc1cccc(C(=O)c2ccc(Cl)cc2)c1C (stereo not shown) [Ethyl ester of Example 6] | 77% | 73% | 1500 mg/kg | 62% | 
2 | CC(Oc1cccc(C(=O)c2ccccc2)c1)C(=O)O (stereo not shown) [Example 1] | 86% | 84% | 1000 mg/kg | 17% | 
3 | Cc1c(OC(C)C(=O)O)cccc1C(=O)c1ccccc1 (stereo not shown) [Example 2] | 73% |  | 750 mg/kg | 33% | 
4 | CC(Oc1cccc(C(=O)c2ccc(Cl)cc2Cl)c1)C(=O)O (stereo not shown) [Example 3] | 98.5% | 71% | 1500 mg/kg | 18% | 
5 | CC(Oc1cccc(C(=O)c2ccc(Br)cc2)c1)C(=O)O (stereo not shown) [Example 4] | 84% | 58% | 1000 mg/kg | 45% | 
6 | CC(Oc1cccc(C(=O)c2ccc(F)cc2)c1)C(=O)O (stereo not shown) [Example 5] | 89% | 63% | 1500 mg/kg | 26% | 
7 | Cc1c(OC(C)C(=O)O)cccc1C(=O)c1ccc(Cl)cc1 (stereo not shown) [Example 6] | 94% | 83% | 750 mg/kg | 46% | 
8 | Cc1ccc(C(=O)c2ccc(Cl)cc2)cc1OC(C)C(=O)O (stereo not shown) [Example 7] | 81% |  | 500 mg/kg | 21% | 
9 | Cc1ccc(C(=O)c2cccc(OC(C)C(=O)O)c2)cc1 (stereo not shown) [Example 8] | 84% | 86% | 1500 mg/kg | 40% | 
10 | Cc1c(OC(C)C(=O)O)cccc1C(=O)c1ccc(Cl)cc1Cl (stereo not shown) [Example 9] | 64% |  | 750 mg/kg |  | 
11 | Cc1ccc(C(=O)c2cccc(OC(C)C(=O)O)c2C)cc1 (stereo not shown) [Example 10] | 92% |  | 600 mg/kg | 32% | 
12 | Cc1ccc(C(=O)c2cccc(OC(C)C(=O)O)c2)c(C)c1 (stereo not shown) [Example 11] | 97% | 31% | 2000 mg/kg | 41% | 
13 | CC(Oc1cccc(C(=O)c2ccccc2)c1)C(=O)O (stereo not shown) [Lysine salt of Ex. 1] | 97% | 86% |  | 50% | 2000 mg/kg
14 | Cc1c(OC(C)C(=O)O)cccc1C(=O)c1ccc(Cl)cc1 (stereo not shown) [Lysine salt of Ex. 6] | 80% | 89% |  | 57% | 1000 mg/kg
15 | Cc1ccc(C(=O)c2cccc(OC(C)C(=O)O)c2)cc1 (stereo not shown) [Lysine salt of Ex. 8] | 87% | 36% |  | 30% | 2000 mg/kg

— patent US4277497A, “Analgesic 2-(M-benzoylphenoxy)-propionic acid derivatives” (Unicler, priority 1978, dated 1981)
